Earlier results in patent US20170224936A1, “Nasal treatment delivery device with carbon dioxide and saline, and methods” (priority 2016, published 2017).

Legend:
[1] = carbon dioxide gas treatments per Capnia prior art to Rasor et al

Q: For `O=C=O` [CO(2), carbon dioxide], which sneezes (20-second exposure, compared with no treatment, p=0.05) is on record?
A: The sneezes was “significant reduction”.

Q: What about the “histamine levels in ipsilateral nasal secretions” value (after pretreatment with CO(2)) of the same compound?
A: The value was “did not increase”.

Q: What about the ipsilateral secretion weights (compared with no treatment) of the same compound?
A: The ipsilateral secretion weights was “numerically reduced”.

Q: And the “bilateral runny nose symptoms” value (compared with no treatment, p=0.01)?
A: Its value is “significant reduction”.

Q: And the contralateral secretion weights (compared with no treatment, p=0.04)?
A: The contralateral secretion weights was “significant reduction”.

Q: And the sensation during exposure (during exposure to CO(2))?
A: The sensation during exposure was “transient burning sensation”.

Q: And the severe stinging [1]?
A: The severe stinging was “had occurred”.
